Patent publication US11365170B2, “Non-solvate crystal of eucomic acid and method for producing same” (KYOWA HAKKO BIO CO., LTD., priority 2018, dated 2022)

Tests used:
Type in all cases: physicochemical
[1] = Angle of repose measurement (Multi Tester MT-1001T); settings: sieve 1.18 mm, vibration width 0.5 to 0.6 mm; mean of three sites
Description: The angle of repose refers to an angle formed by a generating line of a cone formed with a powder when the powder is allowed to gently fall onto the horizontal plane through a kind of funnel and a horizontal plane.
The angle of repose can be measured using Multi Tester MT-1001T (manufactured by Seishin Enterprise Co, Ltd.) in accordance with the accompanying manual according to the following measurement example.
Measurement Example of Angle of Repose
Used equipment: multi-tester MT-1001T type (manufactured by Seishin Enterprise Co., Ud.)
Vibration width: 0.5 to 0.6 mm
Measurement method: Crystals are allowed to fall by passing through a sieve of 1.18 mm that is vibrated with a width of 0.5 to 0.6 mm, and are deposited on an angle-of-repose table (part number: MT-1029). The angle-of-repose table is rotated without being given vibration, angles are read at three sites, and an arithmetic mean value of the angles is determined to be the angle of repose.

[2] = Methanol content (residual methanol) measured using a gas chromatograph; settings: value includes methanol adhering to the crystal surface
Description: Analysis Example Using Gas Chromatograph
Used equipment: GC-2014 (manufactured by Shimadzu Corporation)
Column: AGILENT J&W DB-WAX 30 m×0.535 mm×1.00 μm (Agilent Technologies, Inc.)
Column temperature: 200° C.
By analysis using HPLC, it was confirmed that the crystal was a crystal of eucomic acid. […] The methanol content is a value including methanol adhering to the crystal surface. The methanol content in the crystal except for the methanol adhering to the crystal surface was 9.0 wt %. It was considered from this that the crystal was a mono-methanol solvate crystal of eucomic acid.
Subsequently, the obtained methanol solvate crystal of eucomic acid was heated and dried at 100° C. for 9 hours at normal pressure. By analysis using HPLC, it was confirmed that the crystal after heating and drying was a crystal of eucomic acid. […] As a result of measuring residual methanol using a gas chromatograph, a methanol content of the crystal was 0.14 wt %. It was found from the above that the crystal was a non-solvate crystal of eucomic acid.

[3] = Methanol content in crystal, except methanol adhering to the crystal surface, by thermal analysis; settings: excluding surface-adhering methanol
Description: The fact that the methanol solvate crystal of eucomic acid is a mono-methanol solvate crystal can be confirmed by the fact that a methanol content in the crystal except for methanol adhering to a crystal surface thereof is generally 7.0 to 14.0 wt %, preferably 9.0 to 11.0 wt %.
The methanol content in the crystal except for the methanol adhering to the crystal surface can be measured by, for example, thermal analysis described in the following measurement example.
Measurement Example of Methanol Content in Crystal by Thermal Analysis
Used equipment: EXSTAR 6000 TG/DTA 6200 (manufactured by Seiko Instruments Inc.)
Measurement conditions: Temperature rises from 20° C. to 30° C. at 20° C./min→Hold for 15 minutes at 30° C.→Temperature rises from 30° C. to 250° C. at 5° C./min
Nitrogen flow rate: 300 mL/min

[4] = Uniformity coefficient from particle size distribution measurement; settings: ratio of 60% passing to 10% passing particle diameter; closer to 1 = higher fluidity
Description: The uniformity coefficient is an index representing fluidity of the powder, and refers to a ratio obtained by dividing a particle diameter through which the powder in an amount of 60% passes by a particle diameter through which the powder in an amount of 10% passes on a cumulative particle diameter distribution curve measured by particle size distribution measurement or sieve division. The closer the value of the uniformity coefficient is to 1, the higher the fluidity is.
The uniformity coefficient can be measured in accordance with the accompanying manual using, for example, a particle size distribution measuring device LS 13 32 (manufactured by Beckman Coulter, Inc.).

[5] = Water content by Karl Fischer method; settings: crystal after heating and drying at 100° C. for 9 hours
Description: Measurement Example by Karl Fischer Method
Used equipment: AQV-2200 (HIRANUMA SANGYO Co., Ltd.)
Measurement method: The water content in the crystal is measured in accordance with instructions for use of AQV-2200 (HIRANUMA SANGYO Co., Ltd.)

Compound | Angle of repose [1] [degree] | Methanol content [2] [wt %] | Methanol content ([2]; listed as methanol solvate crystal of eucomic acid) [wt %] | Methanol content in the crystal except for the methanol adhering to the crystal surface [3] [wt %] | Uniformity coefficient [4] | Methanol content ([2]; listed as non-solvate crystal of eucomic acid) [wt %] | Water content (hydrated water) [5]
O=C(O)C[C@](O)(Cc1ccc(O)cc1)C(=O)O [Methanol solvate crystal, (R)-2-hydroxy-2-[(4-hydroxyphenyl)methyl]butanedioic acid] | 45.7 | 28.1 | 28.1 | 9.0 | 4.25 | – | –
O=C(O)C[C@](O)(Cc1ccc(O)cc1)C(=O)O [Non-solvate crystal, (R)-2-hydroxy-2-[(4-hydroxyphenyl)methyl]butanedioic acid] | 39.0 | 0.14 | – | – | 3.36 | 0.14 | did not contain hydrated water
